Test results as given in patent publication US20260335294A1, “TREATING CONGENITAL DISORDERS OF GLYCOSYLATION” (Mayo Foundation for Medical Education and Research, priority 2022, published 2026).
Marks after values point to notes of the source that are not given here.

Columns and labels:
pmm2 mutant zebrafish [1] = test: Zebrabox motility assay; assay type: in vivo
Procedure: Zebrabox Motility Assay Progeny of a pmm2^sa1050/+ (pmm2^m/+) mating were collected and raised in the light following standard protocols. […] Embryos were also fed a small number of rotifers daily once behavioral readings were completed. Locomotor activity (swim paths, speeds) was monitored for ten-minute intervals from 6-10 dpf using the Zebrabox System (ViewPoint Inc., Toronto, Canada). Data was analyzed and graphed using GraphPad Prism.
Then, both wt and pmm2 mutant zebrafish were treated with 20 µM daily epalrestat, which increased the distance swam and the number of swim events initiated in the pmm2 mutant zebrafish (FIG. 5 C,D). The improvement was most significant at 6 dpf and 7 dpf (FIG. 5 C,D).

pmm2 mutant zebrafish [2] = test: Viability of treated zebrafish; assay type: in vivo
PMM2-CDG patients = test: Urine polyols (sorbitol, mannitol) in patients on epalrestat; assay type: in vivo, human; settings: for Urine Sorbitol: normal <5; for Urine Mannitol: normal < 20
From the text: The primary objective of the study was to assess the efficacy and safety of epalrestat treatment in 3 PMM2-CDG pediatric subjects prior to a planned Phase III clinical trial (Oral epalrestat therapy in Pediatric Subjects with PMM2-CDG, NCT04925960). The secondary objective was to assess the ability of epalrestat to improve clinically relevant aspects of PMM2-CDG such as increased urine polyols (sorbitol, mannitol), abnormal glycosylation (carbohydrate deficient transferrin), abnormal coagulation (ATIII=antithrombin III), impaired liver function (ALT=Alanine Transaminase, AST=Aspartate Transaminase), neurologic function (Brief Ataxia Rating Scale=BARS), severity of phenotype (Nijmegen Pediatric CDG Rating Scale=NPCRS). The ability of epalrestat to inhibit polyol production was monitored by evaluating urine polyol levels (sorbitol, mannitol), which are elevated in PMM2-CDG. Next, carbohydrate deficient transferrin, which is abnormal in PMM2-CDG, was evaluated in order to assess improvement of glycosylation following epalrestat treatment. CDT mono-oligo/dioligo ratio and a-oligo/dioligo ratio are used to evaluate glycosylation abnormalities. Transferrin normally occurs with two glycan chains (di-oligo). In the case of glycosylation abnormalities, glycan chains are missing (A-oligo transferrin has no glycan chains, mono-oligo has one glycan chain, di-oligo has two glycan chains). The higher ratio of a-oligo/di-oligo and mono-oligo/di-oligo indicate glycosylation abnormalities are present. Therefore, improvement in a-oligo/di-oligo and mono-oligo/di-oligo ratios can be used to monitor improvement or worsening of glycosylation status. Changes in the liver enzymes AST, ALT, which are frequently elevated in PMM2-CDG, were monitored both as part of a safety study and as part of monitoring clinical improvement in coagulation. Neurologic improvement was assessed by modified BARS scores in 2 patients (3rd patient was not eligible for the test due to age at the start of the trial). NPCRS was assessed at every visit to assess changes in the severity of the patients' phenotype. Additionally, the frequency of adverse events, changes in vital signs, complete blood count, and changes in BMI were monitored.
Two patients were started on epalrestat on single patient investigational new drug (IND) (P5 IRB: 19-010017; IND #145262; P6 Protocol PMM2-CDG-001/A). Epalrestat was initiated on the parents' own initiative in the third patient (P7). Two patients were in their second year of epalrestat treatment, while the third, was in the 3rd year of treatment. Physical, neurological, and biochemical examinations were performed in 3 PMM2-CDG patients at baseline, and at every three months after the start of the epalrestat treatment. Patients underwent NPCRS phenotype severity assessment and biological sampling at every visit. Epalrestat (Ono Pharmaceuticals, Osaka, Japan) was taken orally 3 times per day (TID) before meals in a divided dose, with dosage escalation throughout the treatment. The pharmacological profile of epalrestat was as described elsewhere (Ligezka et al, Ann. Neurol., 90(6):887-900 (2021)). The starting dosage in P5 and P6 was 0.8 mg/kg/day, while P7 was started on 0.5 mg/kg/day due to their young age. P7 dosage was increased to 0.8 mg/day after a month, once safety was established. Blood and urine samples were collected routinely. Urine polyols, carbohydrate deficient transferrin (CDT), anti-thrombin III (ATIII), liver enzymes (ALT, AST), and complete blood count (CBC) were performed. Modified Brief Ataxia Rating Scale was used to assess ataxia in the 2 patients (P5, P6; P7 was not eligible for the test due to age). The modified BARS scale included Archimedes spiral test, but not the abnormalities of the ocular pursuit system and the scale range was 0-54. Goal attainment scale (GAS) was administered as described per study protocol (ClinicalTrials.gov Identifier: NCT04199000). […]

PMM2-CDG = settings: Ligezka et al 2021; cited from earlier work
[3] = 20 μM daily (printed 20 M), pmm2 mutant
[4] = P6, Baseline column: first available results 3 months after starting treatment, 0.8 mg/kg day

CC(/C=C1\SC(=S)N(CC(=O)O)C1=O)=C\c1ccccc1 [epalrestat]
swimming behavior (pmm2 mutant zebrafish [1]; 10 μM daily, wt and pmm2 mutant): no improvement in swimming behavior | distance swam (pmm2 mutant zebrafish [1]; [3]): increased | number of swim events initiated (pmm2 mutant zebrafish [1]; [3]): significantly increased | swimming distance at 6 dpf and 7 dpf (pmm2 mutant zebrafish [1]; 20 μM daily, pmm2 zebrafish, wt n=42-46, pmm2 n=22-51): significantly increased | viability, treated vs untreated (pmm2 mutant zebrafish [2]): no significant difference | Urine Sorbitol (PMM2-CDG patients; P5, 12 months, 1.5 mg/kg day, baseline 19.9): 10.7 mmol/mol Cr | Urine Mannitol (PMM2-CDG patients; P5, 12 months, 1.5 mg/kg day, baseline 648.6): 32.6 mmol/mol Cr | Urine Sorbitol (PMM2-CDG patients; P5, 24 months, 2 mg/kg day, baseline 19.9): 7.5 mmol/mol Cr | Urine Mannitol (PMM2-CDG patients; P5, 24 months, 2 mg/kg day, baseline 648.6): 45.3 mmol/mol Cr | Urine Sorbitol (PMM2-CDG patients; P5, 28 months, 3 mg/kg day, baseline 19.9): 7.86 mmol/mol Cr | Urine Mannitol (PMM2-CDG patients; P5, 28 months, 3 mg/kg day, baseline 648.6): 93.19 mmol/mol Cr | urine mannitol during treatment (PMM2-CDG patients; P5, underwent a fructose loading test): A fluctuation in mannitol | urine polyol levels (PMM2-CDG patients; P5-P7, words): decreased | urine polyol levels during treatment (PMM2-CDG patients; P5-P7, words): remained mostly stable | Urine Sorbitol (PMM2-CDG patients; P6, 12 months, 1.5 mg/kg day): 12.81 mmol/mol Cr | Urine Mannitol (PMM2-CDG patients; P6, 12 months, 1.5 mg/kg day): 14.77 mmol/mol Cr | Urine Sorbitol (PMM2-CDG patients; P6, 18 months, 3 mg/kg day): 9 mmol/mol Cr | Urine Mannitol (PMM2-CDG patients; P6, 18 months, 3 mg/kg day): 47 mmol/mol Cr | Urine Sorbitol (PMM2-CDG patients; [4]): 50.80# mmol/mol Cr | Urine Mannitol (PMM2-CDG patients; [4]): 23.90# mmol/mol Cr | Urine Sorbitol (PMM2-CDG patients; P7, 12 months, 1.5 mg/kg day, baseline 9.85): 0.03 mmol/mol Cr | Urine Mannitol (PMM2-CDG patients; P7, 12 months, 1.5 mg/kg day, baseline 10.37): 1.89 mmol/mol Cr | glycosylation in vivo (PMM2-CDG): improved glycosylation
